According to patent US20100298343A1, “5-LIPOXYGENASE-ACTIVATING PROTEIN (FLAP) INHIBITORS” (priority 2007, published 2010):

Biological target: T1, 5-lipoxygenase-activating protein (FLAP) (Homo sapiens, UniProt P20292)
T1 construct: tissue Biological Speciality Corporation; host or cells: human polymorphonuclear cells (100,000 g membranes)
T1 sequence (P20292 1-161): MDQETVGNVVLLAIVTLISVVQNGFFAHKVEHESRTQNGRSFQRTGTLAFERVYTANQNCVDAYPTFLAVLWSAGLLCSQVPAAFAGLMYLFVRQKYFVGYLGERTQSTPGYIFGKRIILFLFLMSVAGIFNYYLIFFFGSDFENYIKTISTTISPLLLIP
Assay: FLAP Binding Assay
Conditions: human polymorphonuclear cell 100,000 g membranes; 3H MK886 or other radioligand; 30 minutes at room temperature
Experimental: A non-limiting example of such a FLAP binding assay is as follows:
Packed human polymorphonuclear cell pellets (1.8×10^9 cells) (Biological Speciality Corporation) were resuspended, lysed and 100,000 g membranes prepared as described (Charleson et al. Mol. Pharmacol, 41, 873-879, 1992). 100,000×g pelleted membranes were resuspended in Tris-Tween assay buffer (100 mM Tris HCl pH 7.4, 140 mM NaCl, 2 mM EDTA, 0.5 mM DTT, 5% glycerol, 0.05% Tween 20) to yield a protein concentration of 50-100 μg/mL. 10 μL membrane suspension was added to 96 well Millipore plate, 78 μL Tris-Tween buffer, 10 μL ^3H MK886 or ^3H 3-[5-(pyrid-2-ylmethoxy)-3-tert-butylthio-1-benzyl-indol-2-yl]-2,2-dimethylpropionic acid (or ^125I MK591 derivative Eggler et al, J. Labelled Compounds and Radiopharmaceuticals, 1994, vXXXIV, 1147)) to 30,000 cpm, 2 μL, inhibitor and incubated for 30 minutes at room temperature. 100 μL ice-cold washed buffer was added to the incubation mixture. Plates were then filtered and washed 3× with 200 μL ice cold Tris-Tween buffer, scintillation bottoms sealed, 100 μL scintillant added, shaken for 15 minutes then counted in a TopCount. Specific binding was determined as defined as total radioactive binding minus non-specific binding in the presence of 10 μM MK886. IC50s were determined using Graphpad prism analysis of drug titration curves.

Row | IC50 [µM] | SMILES
1 | 10 to 100 | CSc1c(C(Cc2ccccc2)C(=O)O)n(C)c2ccc(OCc3ccccn3)cc12 (stereo not shown) [Example 9, 2-[1-Methyl-3-methylsulfanyl-5-(pyridin-2-ylmethoxy)-1H-indol-2-yl]-3-phenyl-propionic acid]
2 | 10 to 100 | Cn1c(C(Cc2ccccc2)C(=O)O)c(S(C)(=O)=O)c2cc(OCc3ccccn3)ccc21 (stereo not shown) [Example 10, 2-[3-Methanesulfonyl-1-methyl-5-(pyridin-2-ylmethoxy)-1H-indol-2-yl]-3-phenyl-propionic acid]
3 | 10 to 100 | CCS(=O)(=O)c1c(C(Cc2ccccc2)C(=O)O)n(C)c2ccc(OCc3ccccn3)cc12 (stereo not shown) [Example 11, 2-[3-Ethanesulfonyl-1-methyl-5-(pyridin-2-ylmethoxy)-1H-indol-2-yl]-3-phenyl-propionic acid]
4 | 100 to 250 | Cc1cnc(COc2ccc3c(c2)c(SC(C)(C)C)c(C(Cc2cnc(C)cn2)C(=O)O)n3C)cn1 (stereo not shown) [Example 37, 2-[3-tert-Butylsulfanyl-1-methyl-5-(5-methyl-pyrazin-2-ylmethoxy)-1H-indol-2-yl]-3-(5-methyl-pyrazin-2-yl)-propionic acid]
